US10894788B2, “Inhibitors of cyclin-dependent kinases” (Kinnate Biopharma Inc., priority 2018, dated 2021)

How the values were obtained:
CDK12 wt/CycK = CDK12 wt/CycK (Homo sapiens (Human), UniProt Q9NYV4); assay: Radiometric protein kinase assay (33PanQinase Activity Assay), Assay Condition A (thiol containing conditions); type: biochemical; details: thiol containing conditions (1.2 mM DTT), ATP 0.3 μM; read-out: CDK12 IC50 Condition A
Outline: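 Recombinant human kinase incubated with [33P]ATP, substrate and compound (10 concentrations, 1×10^−04M to 3×10^−09M, singlicate, 1% DMSO) under thiol-containing buffer conditions, 60 min at 30 °C. 33Pi incorporation counted by scintillation; residual activity normalised to no-inhibitor and no-kinase controls, IC50 derived.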

CDK12 = CDK12 (Homo sapiens (Human), UniProt Q9NYV4); assay: Radiometric protein kinase assay (33PanQinase Activity Assay), Assay Condition B (thiol-free conditions); type: biochemical; details: thiol-free conditions (1 mM TCEP, glutathione removed)
CDK12, sequence (Q9NYV4 whole entry): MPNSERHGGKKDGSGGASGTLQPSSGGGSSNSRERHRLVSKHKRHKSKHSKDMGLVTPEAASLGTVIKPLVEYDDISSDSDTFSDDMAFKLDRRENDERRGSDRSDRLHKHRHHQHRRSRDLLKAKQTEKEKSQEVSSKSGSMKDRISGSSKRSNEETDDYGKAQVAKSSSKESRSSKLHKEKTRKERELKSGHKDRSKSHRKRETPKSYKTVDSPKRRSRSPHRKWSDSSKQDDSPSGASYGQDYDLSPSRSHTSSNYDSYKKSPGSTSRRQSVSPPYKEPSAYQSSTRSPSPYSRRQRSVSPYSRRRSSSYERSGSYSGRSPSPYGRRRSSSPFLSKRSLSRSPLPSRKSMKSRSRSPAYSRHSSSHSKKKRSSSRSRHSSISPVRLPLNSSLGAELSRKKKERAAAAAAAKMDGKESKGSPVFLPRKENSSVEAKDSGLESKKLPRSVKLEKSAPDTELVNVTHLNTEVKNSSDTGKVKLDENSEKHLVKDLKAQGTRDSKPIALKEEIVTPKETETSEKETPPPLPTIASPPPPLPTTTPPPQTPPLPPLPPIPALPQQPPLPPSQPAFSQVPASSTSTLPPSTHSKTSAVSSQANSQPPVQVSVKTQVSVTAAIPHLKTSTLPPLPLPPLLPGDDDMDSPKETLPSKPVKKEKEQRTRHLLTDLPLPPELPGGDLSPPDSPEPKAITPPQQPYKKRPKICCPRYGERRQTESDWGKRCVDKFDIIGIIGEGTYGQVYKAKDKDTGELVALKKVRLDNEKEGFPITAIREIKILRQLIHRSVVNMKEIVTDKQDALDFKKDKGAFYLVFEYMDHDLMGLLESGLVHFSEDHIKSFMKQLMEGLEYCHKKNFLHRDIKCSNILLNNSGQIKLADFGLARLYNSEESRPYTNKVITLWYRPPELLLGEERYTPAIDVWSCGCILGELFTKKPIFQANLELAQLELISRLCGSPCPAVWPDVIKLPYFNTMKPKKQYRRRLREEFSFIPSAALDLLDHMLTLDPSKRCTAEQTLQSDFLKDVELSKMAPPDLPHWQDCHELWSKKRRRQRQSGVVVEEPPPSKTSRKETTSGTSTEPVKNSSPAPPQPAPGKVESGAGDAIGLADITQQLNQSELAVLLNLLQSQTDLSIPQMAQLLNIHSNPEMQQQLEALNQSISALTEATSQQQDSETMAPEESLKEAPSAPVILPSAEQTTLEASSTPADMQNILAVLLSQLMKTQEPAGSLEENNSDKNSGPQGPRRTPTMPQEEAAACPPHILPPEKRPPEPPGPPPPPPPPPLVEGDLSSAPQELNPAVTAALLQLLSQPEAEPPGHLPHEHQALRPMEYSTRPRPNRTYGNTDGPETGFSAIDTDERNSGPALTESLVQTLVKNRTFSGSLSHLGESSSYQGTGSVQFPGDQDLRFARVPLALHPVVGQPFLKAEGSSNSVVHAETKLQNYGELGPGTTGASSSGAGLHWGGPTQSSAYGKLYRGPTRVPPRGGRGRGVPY
CDK12, sequence (O75909 whole entry partner): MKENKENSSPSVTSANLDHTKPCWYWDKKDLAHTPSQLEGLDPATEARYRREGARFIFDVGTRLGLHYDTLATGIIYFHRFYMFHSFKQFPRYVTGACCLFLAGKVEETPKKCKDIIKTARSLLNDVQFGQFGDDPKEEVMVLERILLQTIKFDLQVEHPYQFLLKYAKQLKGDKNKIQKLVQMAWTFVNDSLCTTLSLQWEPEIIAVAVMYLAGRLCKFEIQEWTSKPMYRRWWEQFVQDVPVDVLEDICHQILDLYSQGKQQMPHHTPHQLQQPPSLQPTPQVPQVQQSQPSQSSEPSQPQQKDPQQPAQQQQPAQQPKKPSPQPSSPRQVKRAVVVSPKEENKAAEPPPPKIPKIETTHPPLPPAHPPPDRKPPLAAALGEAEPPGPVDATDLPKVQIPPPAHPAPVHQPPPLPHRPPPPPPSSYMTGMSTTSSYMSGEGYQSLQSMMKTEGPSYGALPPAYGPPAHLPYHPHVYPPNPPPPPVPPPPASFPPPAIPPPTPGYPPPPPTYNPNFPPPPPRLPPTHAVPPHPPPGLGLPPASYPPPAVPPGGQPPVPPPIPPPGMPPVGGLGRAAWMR
Description: Example 2—Assay Condition B (Thiol-Free Conditions)
The IC50 profile of compounds was determined using one protein kinase in a customized, thiol free assay. […] Prior to testing, the 1×10^−03 M stock solutions in column 2 of the master plates were subjected to a serial, semi-logarithmic dilution using 100% DMSO as a solvent. […] Column 1 and 7 were filled with 100% DMSO as controls. Subsequently, 2×10 microliter from each well of the serial diluted copy plates were aliquoted with a 96 channel pipettor into two identical sets of “compound dilution plates”. All plates were barcoded for automated identification and tracking purposes. […] All compounds were stored as powder until being solubilized in DMSO. Solubilized compounds were stored as 1×10^−02 M/100% DMSO stock solutions. Prior to the assay process, 90 microliters of H2O were added to each well of a set of compound dilution plates. To minimize potential precipitation, the H2O was added to each plate only a few minutes before the transfer of the compound solutions into the assay plates. Each plate was shaken thoroughly, resulting in compound dilution plates with a final of 10% DMSO. For each assay, 5 microliters of solution from each well of the compound dilution plates/10% DMSO were transferred into the assay plate. The final volume of the assay was 50 μl. All compounds were tested at 10 final assay concentrations in the range from 1×10^−05 M to 3×10^−10 M, in singlicate. The final DMSO concentration in the reaction cocktails was 1% in all cases. A radiometric protein kinase assay (33PanQinase® Activity Assay) was used for measuring the kinase activity of the protein kinase. All kinase assays were performed in 96-well FlashPlates™ from PerkinElmer (Boston, Mass., USA) in a 50 microliter reaction volume. The reaction cocktail was pipetted in four steps in the following order: 20 microliter of assay buffer (standard buffer)·5 microliter of ATP solution (in H2O)·5 microliter of test compound (in 10% DMSO)·20 microliter enzyme/substrate mix. […] For all experiments labeled as “Thiol-free”, all glutathione was exchanged from protein preparations so as to be removed from the assay and final buffer conditions contained no thiol-containing reagents. This was done so there would be no interference with the key cysteines in the proteins of interest.
For data analysis, the median value of the counts in column 1 (n=8) of each assay plate was defined as “low control”. This value reflects unspecific binding of radioactivity to the plate in the absence of a protein kinase but in the presence of the substrate. The median value of the counts in column 7 of each assay plate (n=8) was taken as the “high control”, i.e. full activity in the absence of any inhibitor. The difference between high and low control was taken as 100% activity. As part of the data evaluation the low control value from a particular plate was subtracted from the high control value as well as from all 80 “compound values” of the corresponding plate. The residual activity (in %) for each well of a particular plate was calculated by using the following formula: Res. Activity (%)=100×[(cpm of compound−low control)/(high control−low control)]
The residual activities for each concentration and the compound IC50 values were calculated using Quattro Workflow V3.1.1 (Quattro Research GmbH, Munich, Germany; www.quattro-research.com). […] The fitting method used was a least-squares fit. As a parameter for assay quality, the Z′-factor (Zhang et al., J. Biomol. Screen. 2: 67-73, 1999) for the low and high controls of each assay plate (n=8) was used. ProQinase's criterion for repetition of an assay plate is a Z′-factor below 0.4 (Iversen et al., J. Biomol. Screen. 3: 247-252, 2006).

[1] = tested on: panel of 1,151 cancer cell lines; details: in 52% of 1,151 cancer cell lines; cited from earlier work

CDK12 wt/CycK, sequence (Q9NYV4 whole entry): as the sequence (Q9NYV4 whole entry) above
CDK12 wt/CycK, sequence (O75909 whole entry partner): as the sequence (O75909 whole entry partner) above

IC50 (CDK12 wt/CycK)	IC50 (CDK12)	SMILES	IC50 [1]
< 100 nM	< 100 nM	CCC(=O)Nc1ccc(C(=O)N2CC[C@@H](Nc3ncc(Br)c(OC)n3)C2)cc1 [Example 14, (R)—N-(4-(3-((5-bromo-4-methoxypyrimidin-2-yl)amino)pyrrolidine-1-carbonyl)phenyl)propionamide]	
< 100 nM	< 100 nM	C=CC(=O)Nc1ccc(C(=O)N2CC[C@@H](Nc3ncc(Br)c(OC)n3)C2)cc1 [Example 20, (R)—N-(4-(3-((5-bromo-4-methoxypyrimidin-2-yl)amino)pyrrolidine-1-carbonyl)phenyl)acrylamide]	
< 100 nM	< 100 nM	C=CC(=O)N(C)c1ccc(C(=O)N2CC[C@@H](Nc3ncc(Cl)c(OC)n3)C2)cc1 [Example 25, (R)—N-(4-(3-((5-chloro-4-methoxypyrimidin-2-yl)amino)pyrrolidine-1-carbonyl)phenyl)-N-methylacrylamide]	
100 to 1000 nM	100 to 1000 nM	C=CC(=O)N(C)c1ccc(C(=O)N2CC[C@@H](Nc3ncc(Cl)cn3)C2)cc1 [Example 28, (R)—N-(4-(3-((5-chloropyrimidin-2-yl)amino)pyrrolidine-1-carbonyl)phenyl)-N-methylacrylamide]	
< 100 nM	< 100 nM	C=CC(=O)Nc1ccc(C(=O)N2CC[C@@H](Nc3ncc(Cl)c(OC)n3)C2)cc1 [Example 47, (R)—N-(4-(3-((5-chloro-4-methoxypyrimidin-2-yl)amino)pyrrolidine-1-carbonyl)phenyl)acrylamide]	
100 to 1000 nM	< 100 nM	C=CC(=O)Nc1ccc(C(=O)N2CC[C@@H](Nc3ncc(Cl)c(C)n3)C2)cc1 [Example 52, (R)—N-(4-(3-((5-chloro-4-methylpyrimidin-2-yl)amino)pyrrolidine-1-carbonyl)phenyl)acrylamide]	
1000 to 10000 nM	100 to 1000 nM	C=CC(=O)Nc1ccc(C(=O)N2CC[C@@H](Nc3ncc(F)c(OC)n3)C2)cc1 [Example 59, (R)—N-(4-(3-((5-fluoro-4-methoxypyrimidin-2-yl)amino)pyrrolidine-1-carbonyl)phenyl)acrylamide]	
	100 to 1000 nM	C=CC(=O)Nc1ccc(C(=O)N2CC[C@@H](Nc3ncc(Cl)c(OC)n3)C2)cc1-c1cnn(C)c1 [Example 82, (R)—N-(4-(3-((5-chloro-4-methoxypyrimidin-2-yl)amino)pyrrolidine-1-carbonyl)-2-(1-methyl-1H-pyrazol-4-yl)phenyl)acrylamide]	
	100 to 1000 nM	C#Cc1cnc(N[C@@H]2CCN(C(=O)c3ccc(N(C)C(=O)C=C)cc3)C2)nc1 [Example 113, (R)—N-(4-(3-((5-ethynylpyrimidin-2-yl)amino)pyrrolidine-1-carbonyl)phenyl)-N-methylacrylamide]	

The remaining lines, values behind:

SMILES	IC50 (CDK12 wt/CycK)	IC50 (CDK12)	IC50 [1]
CCC(=O)Nc1ccc(C(=O)N2CC[C@@H](Nc3ncc(Br)cn3)C2)cc1 [Example 17, (R)—N-(4-(3-((5-bromopyrimidin-2-yl)amino)pyrrolidine-1-carbonyl)phenyl)propionamide]	100 to 1000 nM	100 to 1000 nM	
C=CC(=O)Nc1ccc(C(=O)N2CC[C@@H](Nc3ncc(Br)cn3)C2)cc1 [Example 19, (R)—N-(4-(3-((5-bromopyrimidin-2-yl)amino)pyrrolidine-1-carbonyl)phenyl)acrylamide]	< 100 nM	< 100 nM	
C=CC(=O)Nc1ccc(C(=O)N2CC[C@@H](Nc3ncc(Cl)c(OC)n3)C2)cc1C [Example 26, (R)—N-(4-(3-((5-chloro-4-methoxypyrimidin-2-yl)amino)pyrrolidine-1-carbonyl)-2-methylphenyl)acrylamide]	< 100 nM	< 100 nM	
C=CC(=O)Nc1ccc(C(=O)N2CC[C@@H](Nc3ncc(Cl)cn3)C2)cc1C [Example 29, (R)—N-(4-(3-((5-chloropyrimidin-2-yl)amino)pyrrolidine-1-carbonyl)-2-methylphenyl)acrylamide]	100 to 1000 nM	< 100 nM	
C=CC(=O)Nc1ccc(C(=O)N2CC[C@@H](Nc3cnc(Cl)cn3)C2)cc1 [Example 53, (R)—N-(4-(3-((5-chloropyrazin-2-yl)amino)pyrrolidine-1-carbonyl)phenyl)acrylamide]	100 to 1000 nM	100 to 1000 nM	
C=CC(=O)Nc1ccc(C(=O)N2CC[C@@H](Nc3cc(OC)c(Cl)cn3)C2)cc1 [Example 54, (R)—N-(4-(3-((5-chloro-4-methoxypyridin-2-yl)amino)pyrrolidine-1-carbonyl)phenyl)acrylamide]	< 100 nM	< 100 nM	
C=CC(=O)Nc1ccc(C(=O)N2CC[C@@H](Nc3cc(C)c(Cl)cn3)C2)cc1 [Example 55, (R)—N-(4-(3-((5-chloro-4-methylpyridin-2-yl)amino)pyrrolidine-1-carbonyl)phenyl)acrylamide]	100 to 1000 nM	< 100 nM	
C=CC(=O)Nc1ccc(C(=O)N2CC[C@@H](Nc3ncc(C4CC4)cn3)C2)cc1 [Example 58, (R)—N-(4-(3-((5-cyclopropylpyrimidin-2-yl)amino)pyrrolidine-1-carbonyl)phenyl)acrylamide]	100 to 1000 nM	< 100 nM	
C=CC(=O)Nc1ccc(C(=O)N2CC[C@@H](Nc3ncc(Cl)c(NC)n3)C2)cc1 [Example 62, (R)—N-(4-(3-((5-chloro-4-(methylamino)pyrimidin-2-yl)amino)pyrrolidine-1-carbonyl)phenyl)acrylamide]	< 100 nM	< 100 nM	
C=CC(=O)Nc1ccc(C(=O)N2CC[C@@H](Nc3ncc(Cl)c(C)n3)C2)cc1C [Example 80, (R)—N-(4-(3-((5-chloro-4-methylpyrimidin-2-yl)amino)pyrrolidine-1-carbonyl)-2-methylphenyl)acrylamide]		100 to 1000 nM	
C=CC(=O)Nc1ccc(C(=O)N2CC[C@@H](Nc3ncc(C)c(OC4CC4)n3)C2)cc1 [Example 81, (R)—N-(4-(3-((4-cyclopropoxy-5-methylpyrimidin-2-yl)amino)pyrrolidine-1-carbonyl)phenyl)acrylamide]		100 to 1000 nM	
C=C(CC)C(=O)Nc1ccc(C(=O)N2CC[C@@H](Nc3ncc(Cl)cn3)C2)cc1 [Example 83, (R)—N-(4-(3-((5-chloropyrimidin-2-yl)amino)pyrrolidine-1-carbonyl)phenyl)-2-methylenebutanamide]		100 to 1000 nM	
C=CS(=O)(=O)Nc1ccc(C(=O)N2CC[C@@H](Nc3ncc(Cl)cn3)C2)cc1 [Example 84, (R)—N-(4-(3-((5-chloropyrimidin-2-yl)amino)pyrrolidine-1-carbonyl)phenyl)ethenesulfonamide]		100 to 1000 nM	
C=CC(=O)Nc1ccc(C(=O)N2CC[C@@H](Nc3ccc(C4CC4)cn3)C2)cc1 [Example 85, (R)—N-(4-(3-((5-cyclopropylpyridin-2-yl)amino)pyrrolidine-1-carbonyl)phenyl)acrylamide]		100 to 1000 nM	
CN(C)C/C=C/C(=O)Nc1ccc(C(=O)Nc2cccc(Nc3ncc(Cl)c(-c4c[nH]c5ccccc45)n3)c2)cc1 [THZ1]			< 200 nM
